Experimental findings from patent US10239883B2, “4-imidazopyridazin-1-yl-benzamides as BTK inhibitors” (Merck Sharp & Dohme B.V., priority 2011, dated 2019) are described below.

A value given as a limit tells only on which side of the number the result lay.

For one assay, the target named is Btk enzyme (His-Btk) (Homo sapiens (Human), UniProt Q06187). As to the kind of experiment: Btk enzyme activity, IMAP fluorescence polarization assay. The settings on record: 60 min pre-incubation, 5 μM ATP, bin bound in nM. For orientation: In fluorescence polarisation assays a small probe gives low polarisation when free and higher when bound to something large.
Btk enzyme (His-Btk), sequence (Q06187 whole entry): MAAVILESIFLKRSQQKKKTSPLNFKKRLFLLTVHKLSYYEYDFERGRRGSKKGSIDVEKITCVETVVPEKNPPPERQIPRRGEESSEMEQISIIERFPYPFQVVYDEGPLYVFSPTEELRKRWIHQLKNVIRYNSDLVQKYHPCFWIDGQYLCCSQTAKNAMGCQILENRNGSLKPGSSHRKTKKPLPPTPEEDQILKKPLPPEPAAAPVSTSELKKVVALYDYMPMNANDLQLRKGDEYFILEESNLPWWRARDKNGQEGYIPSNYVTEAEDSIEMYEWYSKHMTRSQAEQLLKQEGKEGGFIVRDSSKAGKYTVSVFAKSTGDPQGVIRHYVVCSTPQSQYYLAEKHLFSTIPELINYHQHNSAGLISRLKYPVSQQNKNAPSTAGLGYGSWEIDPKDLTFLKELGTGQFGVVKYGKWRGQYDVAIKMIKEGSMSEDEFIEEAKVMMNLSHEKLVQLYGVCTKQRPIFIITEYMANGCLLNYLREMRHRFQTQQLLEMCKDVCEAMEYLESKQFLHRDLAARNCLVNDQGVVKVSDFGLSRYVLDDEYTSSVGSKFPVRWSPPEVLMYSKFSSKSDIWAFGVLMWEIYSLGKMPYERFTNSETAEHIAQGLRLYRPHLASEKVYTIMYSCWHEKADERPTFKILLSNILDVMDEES
Take `COc1cc(-c2nc([C@@H]3CCCN3C(=O)c3ccnc(Cl)n3)n3ccnc(N)c23)ccc1C(=O)Nc1ccccn1` [Example 83, (S)-4-(8-amino-3-(1-(2-chloropyrimidine-4-carbonyl)pyrrolidin-2-yl)imidazo[1,5-a]pyrazin-1-yl)-2-methoxy-N-(pyridin-2-yl)benzamide]: the “EC50 Btk activity values” is below 100 nM. For the compound `Nc1nccn2c([C@@H]3CCCN3C(=O)c3ccnc(Cl)n3)nc(-c3ccc(C(=O)Nc4ccccn4)c(F)c3)c12` [Example 84, (S)-4-(8-amino-3-(1-(2-chloropyrimidine-4-carbonyl)pyrrolidin-2-yl)imidazo[1,5-a]pyrazin-1-yl)-2-fluoro-N-(pyridin-2-yl)benzamide], the “EC50 Btk activity values” is below 100 nM.

`CC#CC(=O)N1CCCC[C@H]1c1nc(-c2ccc(C(=O)Nc3nccc(C)n3)cc2)c2c(N)nccn12` [Example 89, (S)-4-(8-amino-3-(1-but-2-ynoylpiperidin-2-yl)imidazo[1,5-a]pyrazin-1-yl)-N-(4-methylpyrimidin-2-yl)benzamide]: the “EC50 Btk activity values” is recorded as below 100 nM. As to `COC/C=C/C(=O)NCc1nc(-c2ccc(C(=O)Nc3ccccn3)cc2)c2c(N)nccn12` [Example 95, (E)-4-(8-amino-3-((4-methoxybut-2-enamido)methyl)imidazo[1,5-a]pyrazin-1-yl)-N-(pyridin-2-yl)benzamide], the “EC50 Btk activity values” was below 100 nM.

The assay is the same for the next values; noted with them: 60 min pre-incubation, 5 μM ATP, bin bound in μM.
Consider `COC/C=C/C(=O)N1CCCC[C@H]1c1nc(-c2ccc(C(=O)Nc3ccccn3)cc2C)c2c(N)nccn12` [Example 85, 4-(8-amino-3-((S)-1-((E)-4-methoxybut-2-enoyl)piperidin-2-yl)imidazo[1,5-a]pyrazin-1-yl)-3-methyl-N-(pyridin-2-yl)benzamide], for which the “EC50 Btk activity values” is below 1000 nM.

As to `COC/C=C/C(=O)N1CCCC[C@H]1c1nc(-c2ccc(C(=O)Nc3ccncn3)cc2)c2c(N)nccn12` [Example 86, (S,E)-4-(8-amino-3-(1-(4-methoxybut-2-enoyl)piperidin-2-yl)imidazo[1,5-a]pyrazin-1-yl)-N-(pyrimidin-4-yl)benzamide], the “EC50 Btk activity values” is below 1000 nM.

Take `CCCc1ccnc(NC(=O)c2ccc(-c3nc([C@@H]4CCCN4C(=O)/C=C/COC)n4ccnc(N)c34)c(C)c2)c1` [Example 87, 4-(8-amino-3-((S)-1-((E)-4-methoxybut-2-enoyl)pyrrolidin-2-yl)imidazo[1,5-a]pyrazin-1-yl)-3-methyl-N-(4-propylpyridin-2-yl)benzamide]: the “EC50 Btk activity values” was below 1000 nM.

With `COC/C=C/C(=O)N1CCCC[C@H]1c1nc(-c2ccc(C(=O)Nc3nccc(C)n3)cc2)c2c(N)nccn12` [Example 88, (S,E)-4-(8-amino-3-(1-(4-methoxybut-2-enoyl)piperidin-2-yl)imidazo[1,5-a]pyrazin-1-yl)-N-(4-methylpyrimidin-2-yl)benzamide], the “EC50 Btk activity values” was below 1000 nM. Still for that read-out and setting: with `Nc1nccn2c([C@@H]3CCCCN3C(=O)c3ccnc(Cl)n3)nc(-c3ccc(C(=O)Nc4ncccn4)cc3)c12` [Example 90, (S)-4-(8-amino-3-(1-(2-chloropyrimidine-4-carbonyl)piperidin-2-yl)imidazo[1,5-a]pyrazin-1-yl)-N-(pyrimidin-2-yl)benzamide] the figure was below 1000 nM; with `C=C(C(=O)N1CCC[C@H]1c1nc(-c2ccc(C(=O)Nc3ccccn3)cc2)c2c(N)nccn12)C(F)(F)F` [Example 92, (S)-4-(8-amino-3-(1-(2-(trifluoromethyl)acryloyl)pyrrolidin-2-yl)imidazo[1,5-a]pyrazin-1-yl)-N-(pyridin-2-yl)benzamide], below 1000 nM.

In the case of `N#CCN1CCC[C@H]1c1nc(-c2ccc(C(=O)Nc3ccccn3)cc2)c2c(N)nccn12` [Example 94, (S)-4-(8-amino-3-(1-(cyanomethyl)pyrrolidin-2-yl)imidazo[1,5-a]pyrazin-1-yl)-N-(pyridin-2-yl)benzamide], the “EC50 Btk activity values” is below 1000 nM.
